Consider one compound from paper PMC5318233 (Cancer letters, 2016).

Assay [1] has as its target complex III (electron transport chain). It is filed as biochemical.
Assay [2] concerns the target complex I (NADH-ubiquinone oxidoreductase). It is filed as biochemical.

The structures appear in SMILES notation. pKi: −log10 of the molar value.

On to `Cc1ccc(Sc2cccc3[nH]c4nc(N)nc(N)c4c23)cc1` [AG311], for which the pKi (as a rule, the negative decadic logarithm of the Ki, by convention in mol/L) in assay [1] is 4.49; in assay [2], 6.08.
